Assay results taken from patent US20200239530A1, “COMPOUNDS AND METHODS OF MODULATING PROTEIN DEGRADATION” (Vividion Therapeutics, Inc., priority 2017, published 2020).

Columns and labels:
Assay in all cases: Competitive cysteine profiling of cell lysate with desthiobiotin iodoacetamide probe (96-well sample prep)
Format in all cases: binding
[1] = target: T1, cysteine residue illustrated in Table 1A or Table 2A (Homo sapiens, UniProt Q6FIF0); settings: UniProt Q6FIF0; KB03 100 uM
T1 construct: Cells were resuspended in cold PBS on ice and sonicated with a probe sonicator to achieve lysis; endogenous in cells
In short: (§1)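 Competitive profiling: compound and lysate (5 mg/ml protein) incubated 1 h at 25 °C before a 1 h, 25 °C desthiobiotin iodoacetamide probe step. Proteins were acetone-precipitated, reduced, alkylated and trypsinized; streptavidin-captured labelled peptides were eluted for MS analysis.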

[2] = target: T2, cysteine residue illustrated in Table 1A or Table 2A (Homo sapiens, UniProt Q13617); settings: UniProt Q13617; 100 uM
T2 construct: Cells were resuspended in cold PBS on ice and sonicated with a probe sonicator to achieve lysis; endogenous in cells
In short: as §1

[3] = target: T3, cysteine residue illustrated in Table 1A or Table 2A (Homo sapiens, UniProt Q9H0M0); settings: UniProt Q9H0M0; KB03 100 uM
T3 construct: Cells were resuspended in cold PBS on ice and sonicated with a probe sonicator to achieve lysis; endogenous in cells
In short: as §1

[4] = target: T4, cysteine residue illustrated in Table 1A or Table 2A (Homo sapiens, UniProt O95159); settings: UniProt O95159; KB03 100 uM
T4 construct: Cells were resuspended in cold PBS on ice and sonicated with a probe sonicator to achieve lysis; endogenous in cells
In short: as §1

[5] = target: T5, cysteine residue illustrated in Table 1A or Table 2A (Homo sapiens, UniProt Q9Y6I7); settings: UniProt Q9Y6I7; KB02 100 uM
T5 construct: Cells were resuspended in cold PBS on ice and sonicated with a probe sonicator to achieve lysis; endogenous in cells
In short: as §1

[6] = target: T6, cysteine residue illustrated in Table 1A or Table 2A (Homo sapiens, UniProt Q7Z6J8); settings: UniProt Q7Z6J8; KB05 100 uM
T6 construct: Cells were resuspended in cold PBS on ice and sonicated with a probe sonicator to achieve lysis; endogenous in cells
In short: as §1

T6 sequence (Q7Z6J8 whole entry): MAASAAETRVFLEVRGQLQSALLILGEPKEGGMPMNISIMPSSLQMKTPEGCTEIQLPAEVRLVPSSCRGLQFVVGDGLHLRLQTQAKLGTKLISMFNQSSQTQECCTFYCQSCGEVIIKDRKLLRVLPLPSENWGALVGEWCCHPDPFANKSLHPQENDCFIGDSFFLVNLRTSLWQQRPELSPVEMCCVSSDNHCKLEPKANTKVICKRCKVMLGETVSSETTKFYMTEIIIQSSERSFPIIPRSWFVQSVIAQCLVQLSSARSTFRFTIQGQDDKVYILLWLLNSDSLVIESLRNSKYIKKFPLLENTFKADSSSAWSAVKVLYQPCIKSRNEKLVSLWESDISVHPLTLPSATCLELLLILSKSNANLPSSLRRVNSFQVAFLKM
T2 sequence (Q13617 whole entry): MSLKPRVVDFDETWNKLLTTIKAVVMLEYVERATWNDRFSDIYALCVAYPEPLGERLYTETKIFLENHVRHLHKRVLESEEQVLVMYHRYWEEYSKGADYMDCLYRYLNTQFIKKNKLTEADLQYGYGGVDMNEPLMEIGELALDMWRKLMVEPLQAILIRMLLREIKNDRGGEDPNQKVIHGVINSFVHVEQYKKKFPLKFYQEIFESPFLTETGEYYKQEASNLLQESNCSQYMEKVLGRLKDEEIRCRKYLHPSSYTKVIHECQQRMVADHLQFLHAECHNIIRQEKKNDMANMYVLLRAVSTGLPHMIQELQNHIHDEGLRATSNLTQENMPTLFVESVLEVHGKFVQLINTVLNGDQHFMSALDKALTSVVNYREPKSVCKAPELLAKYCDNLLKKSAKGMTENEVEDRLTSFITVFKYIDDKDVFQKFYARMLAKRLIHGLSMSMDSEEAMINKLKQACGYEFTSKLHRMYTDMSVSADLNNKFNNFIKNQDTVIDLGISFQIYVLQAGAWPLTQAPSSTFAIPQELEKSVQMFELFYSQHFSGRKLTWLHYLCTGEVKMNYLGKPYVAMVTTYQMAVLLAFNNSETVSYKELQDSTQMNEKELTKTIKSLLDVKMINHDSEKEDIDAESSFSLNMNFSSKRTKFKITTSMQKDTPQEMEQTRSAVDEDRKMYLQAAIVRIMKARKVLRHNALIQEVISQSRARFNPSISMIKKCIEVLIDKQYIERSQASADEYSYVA
T1 sequence (Q6FIF0 whole entry): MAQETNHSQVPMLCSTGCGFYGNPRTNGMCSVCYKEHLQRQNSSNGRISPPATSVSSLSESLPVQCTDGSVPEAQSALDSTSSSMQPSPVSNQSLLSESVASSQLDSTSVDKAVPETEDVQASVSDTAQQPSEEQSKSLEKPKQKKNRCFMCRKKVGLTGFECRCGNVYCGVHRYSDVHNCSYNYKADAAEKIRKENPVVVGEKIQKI
T5 sequence (Q9Y6I7 whole entry): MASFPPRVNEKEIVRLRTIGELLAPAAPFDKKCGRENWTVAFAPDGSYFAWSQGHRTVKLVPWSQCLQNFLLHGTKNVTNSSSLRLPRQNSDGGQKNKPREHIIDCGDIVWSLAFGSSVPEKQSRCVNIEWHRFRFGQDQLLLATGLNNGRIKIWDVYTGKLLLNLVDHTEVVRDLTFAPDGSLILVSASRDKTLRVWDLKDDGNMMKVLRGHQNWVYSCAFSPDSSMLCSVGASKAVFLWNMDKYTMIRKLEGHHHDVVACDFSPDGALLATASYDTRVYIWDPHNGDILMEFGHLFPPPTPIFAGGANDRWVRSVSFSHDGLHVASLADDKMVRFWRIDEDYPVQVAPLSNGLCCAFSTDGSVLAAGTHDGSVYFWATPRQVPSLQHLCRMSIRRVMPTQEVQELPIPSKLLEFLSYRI
T4 sequence (O95159 whole entry): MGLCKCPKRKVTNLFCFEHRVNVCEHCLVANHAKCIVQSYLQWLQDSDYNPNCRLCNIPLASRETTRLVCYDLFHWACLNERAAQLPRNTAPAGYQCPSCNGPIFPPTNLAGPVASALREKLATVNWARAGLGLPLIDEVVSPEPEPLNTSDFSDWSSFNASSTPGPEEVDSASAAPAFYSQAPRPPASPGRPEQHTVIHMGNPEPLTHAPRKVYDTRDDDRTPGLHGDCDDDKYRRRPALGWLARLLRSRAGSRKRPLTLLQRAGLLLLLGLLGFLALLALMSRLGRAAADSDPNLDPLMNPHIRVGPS
T3 sequence (Q9H0M0 whole entry): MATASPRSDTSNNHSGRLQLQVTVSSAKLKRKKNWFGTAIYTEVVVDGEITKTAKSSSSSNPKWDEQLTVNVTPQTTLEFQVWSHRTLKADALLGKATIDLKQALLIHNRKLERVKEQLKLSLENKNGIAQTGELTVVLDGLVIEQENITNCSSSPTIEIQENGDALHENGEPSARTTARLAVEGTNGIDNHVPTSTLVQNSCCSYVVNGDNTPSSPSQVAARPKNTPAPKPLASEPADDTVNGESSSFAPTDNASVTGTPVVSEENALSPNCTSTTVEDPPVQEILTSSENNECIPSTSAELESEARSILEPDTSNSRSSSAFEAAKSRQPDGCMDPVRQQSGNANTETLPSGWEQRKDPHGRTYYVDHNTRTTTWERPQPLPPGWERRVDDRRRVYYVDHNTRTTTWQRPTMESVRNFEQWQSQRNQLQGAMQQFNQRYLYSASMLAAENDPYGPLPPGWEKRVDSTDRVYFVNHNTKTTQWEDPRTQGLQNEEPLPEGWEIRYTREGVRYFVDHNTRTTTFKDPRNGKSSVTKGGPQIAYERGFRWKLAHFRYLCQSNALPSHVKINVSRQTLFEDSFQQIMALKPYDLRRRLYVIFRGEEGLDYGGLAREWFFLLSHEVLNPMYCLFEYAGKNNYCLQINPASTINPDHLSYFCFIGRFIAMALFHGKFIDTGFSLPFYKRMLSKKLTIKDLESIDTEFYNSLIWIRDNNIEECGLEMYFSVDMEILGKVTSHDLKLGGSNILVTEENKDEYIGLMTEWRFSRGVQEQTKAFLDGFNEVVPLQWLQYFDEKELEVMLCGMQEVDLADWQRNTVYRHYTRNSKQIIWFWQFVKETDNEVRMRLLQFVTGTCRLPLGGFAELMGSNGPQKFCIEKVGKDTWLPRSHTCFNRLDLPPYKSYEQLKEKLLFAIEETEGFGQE

## O=C(CCl)Nc1cc(C(F)(F)F)cc(C(F)(F)F)c1 [KBO3]
[1]
  KB03_100 uM_percent_inhibition: 8%
[2]
  KB03_100 uM_percent_inhibition: 30%
[3]
  KB03_100 uM_percent_inhibition: 61%
[4]
  KB03_100 uM_percent_inhibition: 15%

## COc1ccc2c(c1)CCCN2C(=O)CCl [KB02]
[5]
  KB02_100 uM_percent_inhibition: 5%

## C=CC(=O)N(c1ccccc1)c1ccc(Br)cc1 [KB05]
[6]
  KB05_100 uM_percent_inhibition: 13%
